Assay results: patent publication US20150218212A1, “FLUORINATED EPOXYKETONE-BASED TETRAPEPTIDE COMPOUNDS AND USES THEREOF AS PROTEASOME INHIBITORS” (FLUORINOV PHARMA INC., priority 2012, published 2015)

Experiments:
Assay type in all cases: cell-based, human
CAKI-1 = test: NCI screening panel, CAKI-1 (Renal Cancer)
Protocol: (§1) Representative compounds of Formula I were screened using the National Cancer Institute (NCI) screening panel, which consists of a panel of human tumor cell lines, representing leukemia, melanoma, and cancers of the lung, colon, ovary, breast, prostate and renal system.
(§2) After 24 h, two plates of each cell line are fixed in situ with TCA, to represent a measurement of the cell population for each cell line at the time of drug addition (Tz). Experimental drugs are solubilised in dimethyl sulfoxide at 400-fold the desired final maximum test concentration and stored frozen prior to use. At the time of drug addition, an aliquot of frozen concentrate is thawed and diluted to twice the desired final maximum test concentration with complete medium containing 50 μg/mL gentamicin. Additional four, 10-fold or ½ log serial dilutions are made to provide a total of five drug concentrations plus control. Aliquots of 100 μl of these different drug dilutions are added to the appropriate microtiter wells already containing 100 μl of medium, resulting in the required final drug concentrations.
(§3) Following drug addition, the plates are incubated for an additional 48 h at 37° C., 5% CO2, 95% air, and 100% relative humidity. For adherent cells, the assay is terminated by the addition of cold TCA (trichloroacetic acid). Cells are fixed in situ by the gentle addition of 50 μl of cold 50% (w/v) TCA (final concentration, 10% TCA) and incubated for 60 minutes at 4° C. The supernatant is discarded, and the plates are washed five times with tap water and air dried. Sulforhodamine B (SRB) solution (100 μl) at 0.4% (w/v) in 1% acetic acid is added to each well, and plates are incubated for 10 minutes at room temperature. After staining, unbound dye is removed by washing five times with 1% acetic acid and the plates are air dried. Bound stain is subsequently solubilised with 10 mM trizma base, and the absorbance is read on an automated plate reader at a wavelength of 515 nm. For suspension cells, the methodology is the same except that the assay is terminated by fixing settled cells at the bottom of the wells by gently adding 50 μl of 80% TCA (final concentration, 16% TCA). Using the seven absorbance measurements [time zero, (Tz), control growth, (C), and test growth in the presence of drug at the five concentration levels (Ti)], the percentage growth is calculated at each of the drug concentrations levels. Percentage growth inhibition is calculated as: [(Ti−Tz)/(C−Tz)]×100 for concentrations for which Ti>/=Tz and [(Ti−Tz)/Tz]×100 for concentrations for which Ti<Tz.
(§4) Three dose response parameters are calculated for each experimental agent. Growth inhibition of 50% (GI50) is calculated from [(Ti−Tz)/(C−Tz)]×100=50, which is the drug concentration resulting in a 50% reduction in the net protein increase (as measured by SRB staining) in control cells during the drug incubation. The drug concentration resulting in total growth inhibition (TGI) is calculated from Ti=Tz. The LC50 (concentration of drug resulting in a 50% reduction in the measured protein at the end of the drug treatment as compared to that at the beginning) indicating a net loss of cells following treatment is calculated from [(Ti−Tz)/Tz]×100=−50. Values are calculated for each of these three parameters if the level of activity is reached. However, if the effect is not reached or is exceeded, the value for that parameter is expressed as greater or less than the maximum or minimum concentration tested.

SF-268 = test: NCI screening panel, SF-268 (CNS Cancer)
Protocol: as §1, §2, §3, §4

MALME-3M = test: NCI screening panel, MALME-3M (Melanoma)
Protocol: as §1, §2, §3, §4

NCI-H226 = test: NCI screening panel, NCI-H226 (Non-Small Cell Lung Cancer)
Protocol: as §1, §2, §3, §4

PC-3 = test: NCI screening panel, PC-3 (Prostate Cancer)
Protocol: as §1, §2, §3, §4

OVCAR-5 = test: NCI screening panel, OVCAR-5 (Ovarian Cancer)
Protocol: as §1, §2, §3, §4

HOP-62 = test: NCI screening panel, HOP-62 (Non-Small Cell Lung Cancer)
Protocol: as §1, §2, §3, §4

UACC-257 = test: NCI screening panel, UACC-257 (Melanoma)
Protocol: as §1, §2, §3, §4

SW-620 = test: NCI screening panel, SW-620 (Colon Cancer)
Protocol: as §1, §2, §3, §4

MOLT-4 = test: NCI screening panel, MOLT-4 (Leukemia)
Protocol: as §1, §2, §3, §4

HCT-116 = test: NCI screening panel, HCT-116 (Colon Cancer)
Protocol: as §1, §2, §3, §4

T-47D = test: NCI screening panel, T-47D (Breast Cancer)
Protocol: as §1, §2, §3, §4

TK-10 = test: NCI screening panel, TK-10 (Renal Cancer)
Protocol: as §1, §2, §3, §4

OVCAR-8 = test: NCI screening panel, OVCAR-8 (Ovarian Cancer)
Protocol: as §1, §2, §3, §4

HCC-2998 = test: NCI screening panel, HCC-2998 (Colon Cancer)
Protocol: as §1, §2, §3, §4

NCI-H322M = test: NCI screening panel, NCI-H322M (Non-Small Cell Lung Cancer)
Protocol: as §1, §2, §3, §4

NCI-H23 = test: NCI screening panel, NCI-H23 (Non-Small Cell Lung Cancer)
Protocol: as §1, §2, §3, §4

SK-MEL-28 = test: NCI screening panel, SK-MEL-28 (Melanoma)
Protocol: as §1, §2, §3, §4

SF-295 = test: NCI screening panel, SF-295 (CNS Cancer)
Protocol: as §1, §2, §3, §4

How did the Log10GI50 (CAKI-1) turn out when `CC(C)C[C@H](NC(=O)[C@H](COC(F)F)NC(=O)CN1CCOCC1)C(=O)N[C@@H](COC(F)F)C(=O)N[C@@H](CC(C)C)C(=O)[C@@]1(C)CO1` [Example 1, (2S)—N-[(1S)-1-(difluoromethoxymethyl)-2-[[(1S)-3-methyl-1-[(2R)-2-methyloxirane-2-carbonyl]butyl]amino]-2-oxo-ethyl]-2-[[(2S)-3-(difluoromethoxy)-2-[(2-morpholinoacetyl)amino]propanoyl]amino]-4-methyl-pentanamide] was run?
Its Log10GI50 is −6.29.

What about the Log10LC50 (CAKI-1) of the same molecule?
The Log10LC50 was greater than −4.00.

What about the Log10TGI50 (CAKI-1) of the same molecule?
Its Log10TGI50 is −5.24.

And the Log10GI50 (SF-268)?
Its Log10GI50 is −7.65.

And the Log10LC50 (SF-268)?
The Log10LC50 was greater than −4.00.

What about the Log10TGI50 (SF-268) of the same molecule?
Its Log10TGI50 is −7.17.

And the Log10GI50 (MALME-3M)?
Its Log10GI50 is −7.39.

What about the Log10LC50 (MALME-3M) of the same molecule?
The Log10LC50 was greater than −4.00.

What about the Log10TGI50 (MALME-3M) of the same molecule?
Its Log10TGI50 is −6.49.

And the Log10GI50 (NCI-H226)?
The Log10GI50 was −7.73.

What about the Log10LC50 (NCI-H226) of the same molecule?
The Log10LC50 was −7.07.

And the Log10TGI50 (NCI-H226)?
Its Log10TGI50 is −7.40.

What about the Log10GI50 (PC-3) of the same molecule?
The Log10GI50 was −7.49.

What about the Log10TGI50 (PC-3) of the same molecule?
Its Log10TGI50 is −6.81.

What about the Log10GI50 (OVCAR-5) of the same molecule?
The Log10GI50 was −7.39.

And the Log10LC50 (OVCAR-5)?
Its Log10LC50 is greater than −4.00.

What about the Log10TGI50 (OVCAR-5) of the same molecule?
The Log10TGI50 was −6.31.

What about the Log10GI50 (HOP-62) of the same molecule?
Its Log10GI50 is −7.76.

And the Log10LC50 (HOP-62)?
The Log10LC50 was −6.57.

And the Log10TGI50 (HOP-62)?
The Log10TGI50 was −7.33.

And the Log10GI50 (UACC-257)?
The Log10GI50 was −7.01.

And the Log10LC50 (UACC-257)?
The Log10LC50 was greater than −4.00.

And the Log10TGI50 (UACC-257)?
The Log10TGI50 was −5.62.

And the Log10GI50 (SW-620)?
Its Log10GI50 is −7.54.

What about the Log10LC50 (SW-620) of the same molecule?
Its Log10LC50 is greater than −4.00.

And the Log10TGI50 (SW-620)?
Its Log10TGI50 is −5.43.

What about the Log10GI50 (MOLT-4) of the same molecule?
Its Log10GI50 is −7.57.

And the Log10LC50 (MOLT-4)?
Its Log10LC50 is greater than −4.00.

And the Log10TGI50 (MOLT-4)?
The Log10TGI50 was −6.98.

What about the Log10GI50 (HCT-116) of the same molecule?
Its Log10GI50 is -8.00.

What about the Log10LC50 (HCT-116) of the same molecule?
Its Log10LC50 is −6.33.

What about the Log10TGI50 (HCT-116) of the same molecule?
Its Log10TGI50 is −7.34.

What about the Log10GI50 (T-47D) of the same molecule?
The Log10GI50 was −7.94.

What about the Log10LC50 (T-47D) of the same molecule?
The Log10LC50 was −7.11.

What about the Log10TGI50 (T-47D) of the same molecule?
The Log10TGI50 was −7.53.

And the Log10GI50 (TK-10)?
The Log10GI50 was −6.53.

And the Log10LC50 (TK-10)?
Its Log10LC50 is greater than −4.00.

And the Log10TGI50 (TK-10)?
The Log10TGI50 was −5.17.

What about the Log10GI50 (OVCAR-8) of the same molecule?
The Log10GI50 was −6.85.

What about the Log10LC50 (OVCAR-8) of the same molecule?
Its Log10LC50 is greater than −4.00.

And the Log10TGI50 (OVCAR-8)?
Its Log10TGI50 is greater than −4.00.

What about the Log10GI50 (HCC-2998) of the same molecule?
Its Log10GI50 is −7.74.

And the Log10LC50 (HCC-2998)?
The Log10LC50 was −7.16.

What about the Log10TGI50 (HCC-2998) of the same molecule?
Its Log10TGI50 is −7.45.

What about the Log10GI50 (NCI-H322M) of the same molecule?
The Log10GI50 was −7.19.

And the Log10LC50 (NCI-H322M)?
The Log10LC50 was −4.86.

What about the Log10TGI50 (NCI-H322M) of the same molecule?
Its Log10TGI50 is −6.45.

What about the Log10GI50 (NCI-H23) of the same molecule?
The Log10GI50 was −7.56.

What about the Log10LC50 (NCI-H23) of the same molecule?
The Log10LC50 was greater than −4.00.

What about the Log10TGI50 (NCI-H23) of the same molecule?
Its Log10TGI50 is −6.68.

What about the Log10GI50 (SK-MEL-28) of the same molecule?
Its Log10GI50 is −7.56.

What about the Log10LC50 (SK-MEL-28) of the same molecule?
The Log10LC50 was greater than −4.00.

What about the Log10TGI50 (SK-MEL-28) of the same molecule?
Its Log10TGI50 is −6.97.

And the Log10GI50 (SF-295)?
Its Log10GI50 is −7.51.

What about the Log10LC50 (SF-295) of the same molecule?
The Log10LC50 was −6.09.

What about the Log10TGI50 (SF-295) of the same molecule?
Its Log10TGI50 is −6.88.
